These are literature values, as cited in patent publication US5780243A, “Methods for the quantitative analysis of organic compounds” (Thaco Research, Ltd., priority 1996, dated 1998).

For the molecule `CNC1C(O)C(NC)C2OC3(O)C(=O)CC(C)OC3OC2C1O` (stereo not shown) [spectinomycin, decahydro-4a,7,9-trihydroxy-2-methyl-6,8-bis(methylamino)-4H-pyrano[2,3-b][1,4]benzodioxin-4-one], the “solubility in organic solvents” value is listed as “virtual insolubility”.
